These results are taken from PubChem BioAssay (NCI).

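These data come from cells grown in 96-well plates and exposed to compound for 48 hours at five concentrations. At the GI50, growth is halved. At the TGI there is no net growth.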 A value given as a limit tells only on which side of the number the result lay.

Holding throughout (test): growth of human tumour cells (NCI), 48 h
Assay [1] deals with COLO 205 colon.
Assay [2] concerns M14 melanoma.
The subject of assay [3] is PC-3 prostate.
In assay [4] the test system is SK-OV-3 ovarian.
In assay [5] the test system is SN12C renal.
The subject of assay [6] is U251 CNS.
The subject of assay [7] is SNB-75 CNS.
Assay [8] relates to MDA-MB-231 breast.
Assay [9] relates to MCF7 breast.
Assay [10] deals with HOP-92 NSCLC.

Take `CCOC(=O)c1c(-c2ccccc2)[n+](=O)c2cc(Cl)c(Cl)cc2n1[O-]`: the GI50 was 3.85 µM in assay [1]; 13.3 µM in assay [2]; 0.769 µM in assay [3]; 18.5 µM in assay [4]; 3.03 µM in [5]; 2.33 µM in assay [6]. Further, the GI50 in assay [7] was 8.7 µM; in assay [8], 2.09 µM; in assay [9] it was 2.03 µM; in [10] it was 2.09 µM. The TGI worked out at 23.6 µM in assay [1]; 27.9 µM in assay [2]; 62.1 µM in [3]; 33.6 µM in [4]; 22.2 µM in [5]; 6.01 µM in assay [6]. Moreover, the TGI in assay [7] turned out to be 30.2 µM; in [8], 5.55 µM; in assay [9], 20.9 µM; in assay [10], 4.6 µM.
As to `O=C1NC(=NCCc2ccc(F)cc2)S/C1=C\c1ccc2ncccc2c1`, the GI50 in assay [1], in assay [2], in assay [3], in assay [4], in assay [5] and in assay [6] was over 25 µM in each case. Moreover, the GI50 in [7] was over 25 µM; in assay [8], over 25 µM; in assay [9] it was over 23.1 µM; in assay [10] it was over 25 µM. Besides, the TGI in [1], in assay [2], in assay [3], in assay [4], in assay [5] and in [6] was over 25 µM in each case. The TGI in [7], in assay [8], in [9] and in [10] was over 25 µM each time.
For `CC1CC2C3CCC4=CC(=O)C=CC4(C)C3(F)C(O)CC2(C)C1(O)C(=O)COP(=O)(O)O` (stereo not given), the GI50 in [1], in assay [2], in assay [3], in assay [4], in [5] and in assay [6] was over 500 µM each time. Besides, the GI50 in assay [7], in assay [8], in [9] and in [10] was over 500 µM in each case. For the same molecule, the TGI in assay [1], in assay [2], in assay [3], in assay [4], in assay [5] and in [6] was over 500 µM in each case. The TGI in assay [7], in assay [8], in [9] and in [10] was over 500 µM in each case.
With `NS(=O)(=O)c1ccc(Nc2cc(-c3ccc(O)c(F)c3)[nH]n2)cc1`, the GI50 in assay [1] is over 25 µM; in assay [2], 15.4 µM; in assay [3], over 25 µM; in [4] it was over 25 µM; in assay [5] it was over 25 µM; in assay [6], 16.4 µM. Besides, the GI50 in [7] was over 25 µM; in assay [8], over 25 µM; in assay [9] it was over 25 µM; in assay [10], over 18.3 µM. Besides, the TGI in [1], in assay [2], in [3], in [4], in [5] and in assay [6] was over 25 µM in each case. Further, the TGI in [7], in [8], in assay [9] and in [10] was over 25 µM in each case.
Turning to `CCCn1c2c(c3ccccc3c1=O)C(=O)c1ccccc1-2`, the TGI in assay [1], in assay [2], in assay [3], in assay [4], in assay [5] and in assay [6] was over 100 µM each time. Also, the TGI in [7], in assay [8], in [9] and in assay [10] was over 100 µM throughout.
Turning to `Cc1cc(=O)oc2ccc(OC/C=C3\CCC(=O)O3)cc12`, the GI50 in assay [1] is 2.17 µM; in assay [2] it was 1.75 µM; in [3], 3.59 µM; in assay [4], 13.1 µM; in [5] it was 13.5 µM; in assay [6], 12.2 µM. Moreover, the GI50 in assay [7] is 1.87 µM; in assay [8] it was 13.2 µM; in assay [9] it was 2.36 µM; in assay [10], 5 µM. For the same molecule, the TGI in [1] stood at 7.24 µM; in [2], 5.37 µM; in assay [3], 21.2 µM; in assay [4], 26.2 µM; in assay [5], 31.4 µM; in assay [6] it was 24.6 µM. Moreover, the TGI stood at 12.3 µM in assay [7], 27 µM in assay [8], 13.3 µM in [9] and 24.4 µM in assay [10].
